Assay results: patent publication US7329686B2, “Substituted thiophene compounds” (AstraZeneca AB, priority 2002, dated 2008)
Counter-ions that a name gives are not always drawn.

Assays:
[1] = target: T1, human form of induced nitric oxide synthase (Homo sapiens, UniProt P35228); test: Screen 3: nitrite accumulation in cytokine-induced DLD-1 cells (Griess reagent); assay type: cell-based; settings: DLD-1 human colorectal carcinoma cells, nitrite accumulation over 5 hours
T1 construct: Nitric oxide synthase was induced in cells by addition of medium containing human recombinant gamma-IFN; endogenous in cells; host or cells: DLD-1 human colorectal carcinoma cells (ECACC 90102540), induced with IFN-gamma, TNF-alpha, IL-6 and IL-1-beta
Protocol: The human colorectal carcinoma cell line, DLD-1 (obtained from the European Collection of Animal Cell Culture—cell line number 90102540) was routinely grown in RPMI 1640 supplemented with 10% (v/v) foetal bovine serum, and 2 mM L-glutamine, at 37° C. in 5% CO2. Nitric oxide synthase was induced in cells by addition of medium containing human recombinant gamma-IFN (1000 units/ml), TNF-alpha (200 U/ml), IL-6 (200 U/ml) and IL-1-beta (250 U/ml). After incubation for 18 hours at 37° C., the medium was removed and the cells washed with warm phosphate buffered saline. Cells were incubated for a further 5 hours at 37° C./5% CO2 in RPMI 1640 containing 100 μM L-arginine and 100 μM verapamil-HCl in the presence and absence of test compounds. Nitrite accumulation was determined by mixing an equal volume of culture media with Griess reagent (10 mg/ml sulphanilamide, 1 mg N-(1-naphthyl)ethylenediamine in 1 ml 2.5% (v/v) phosphoric acid). Inhibition in the presence of compounds was calculated relative to the nitrite levels produced by untreated cells. IC50 values were estimated from a semi-log plot of % inhibition versus concentration of compound.

Recombinant human iNOS = target: T2, Recombinant human iNOS (Homo sapiens, UniProt P35228); test: Screen 2: recombinant human NO synthase inhibition, L-[3H]citrulline formation; assay type: biochemical; settings: recombinant human iNOS expressed in E. coli; 60 min pre-incubation with NADPH
T2 construct: made in house; host or cells: E. coli (lysate)
Protocol: Recombinant human NO synthases (iNOS, eNOS & nNOS) were expressed in E. coli and lysates were prepared in Herpes buffer (pH 7.4) containing co-factors (FAD, FMN, H4B), protease inhibitors, lysozyme and the detergent, CHAPS. These preparations were used, at suitable dilution, to assess inhibition of the various isoforms. Inhibition of NOS was determined by measuring the formation of L-[^3H]citrulline from L-[^3H]arginine using an adaptation of the method of Förstermann et al.^9 Enzyme assays were performed in the presence of 3 μM [^3H]arginine, 1 mM NADPH and other co-factors required to support NOS activity (FAD, FMN, H4B, calmodulin, Ca^2+). […] Incubations continued for a further 60 min before the assays were quenched and [^3H]citrulline separated from unreacted substrate by chromatography on Dowex-50W resin in a 96-well format.

Nitric oxide synthase = target: T3, Nitric oxide synthase (Mus musculus, UniProt P29477); test: Screen 1: nitric oxide synthase inhibition, 3H-L-arginine to 3H-L-citrulline conversion, lysate of induced J774A-1 cells; assay type: biochemical; settings: enzyme from LPS/IFNg-induced murine macrophage cell line J774A-1; 1 hour at room temperature
T3 construct: endogenous in cells; host or cells: J774A-1 murine macrophage cell line, induced with LPS and IFN-gamma; crude lysate
Protocol: The activity of compounds of formula (I), or a pharmaceutically acceptable salt, enantiomer or racemate thereof, may be screened for nitric oxide synthase inhibiting activity by a procedure based on that of Förstermann et al., Eur. J. Pharm., 1992, 225, 161-165. Nitric oxide synthase converts ^3H-L-arginine into ^3H-L-citrulline which can be separated by cation exchange chromatography and quantified by liquid scintillation counting.
Enzyme is prepared, after induction, from the cultured murine macrophage cell line J774A-1 (obtained from the laboratories of the Imperial Cancer Research Fund). J774A-1 cells are cultured in Dulbeccos Modified Eagles Medium (DMEM) supplemented with 10% foetal bovine serum, 4 mM L-glutamine and antibiotics (100 units/ml penicillin G, […] streptomycin & […] amphotericin B). Cells are routinely grown in […] flasks containing 35 ml medium kept at 37° C. and in a humidified atmosphere containing 5% CO2. […]
Labelled L-citrulline is separated from labelled L-arginine using Dowex AG-50W. […] After allowing the samples to dry the L-citrulline is quantified by scintillation counting.
In a typical experiment basal activity is 300 dpm per 75 μl sample which is increased to 1900 dpm in the reagent controls. […] Compounds are tested at a range of concentrations and from the inhibitions obtained IC50 values are calculated. […]

`Cc1cc(S[C@H](CN)c2ccccc2)c(C#N)s1` [Example 1, 3-[[(1S)-2-Amino 1-phenylethyl]thio]-5-methyl-2-thiophenecarbonitrile oxalate] was tested, and the IC50 [1] was < 100 µM, the IC50 (Recombinant human iNOS) was < 10 µM and the IC50 (Nitric oxide synthase) was < 10 µM.
